Laboratory results reported in US10774049B2, “PU.1 inhibitors” (Albert Einstein College of Medicine, priority 2016, dated 2020).

How the values were obtained:
[1] = system: PU.1 URE−/− AML cell line; experiment: Cell viability/growth of PU.1 URE−/− AML cells; assay type: cell-based, murine; conditions: Mus musculus; read-out: IC50 URE−/−
Description: (§1) FIG. 2A-2F. PU.1 inhibition decreases cell growth and increases apoptosis of PU.1^1″ leukemic cells. (A) Chemical structures of heterocyclic diamidines DB1976, DB2115 and DB2313 used in this study. (B) Relative cell viability of URE−/− cells and BAF3 cells after treatment with increasing concentrations of vehicle or small molecules. Cell viability was assessed after 48 h. Data represent means of technical triplicate from one representative experiment; fold change compared to Vehicle is shown. (C) Cell proliferation assay of URE−/− after treatment with DB1976 (n=5), DB2115 (n=3), DB2313 (n=3), of MOLM13 cells (n=3), and THP1 cells (n=3). Cell counting was performed every 24 h during 4 days. Data represent means±SD of technical triplicate from one representative experiment. Forward strand: SEQ ID NO:3, and Reverse strand: SEQ ID NO:4; derived from the λB motif from the murine Ig lambda 2-4 enhancer, a known native PU.1-dependent gene and specific binding site for PU.1. (D) Clonogenic capacities of URE−/− cells after treatment with DB1976 (n=5), DB2115 (n=3) and DB2313 (n=4) in the first plating, and after serial replatings (n=3). Data represent means±SD of technical triplicate from one representative experiment. (E) Apoptotic cells (Annexin-V+Dapi−) fraction in URE−/− cells after 48 h of treatment with DB1976 (n=6), DB2115 (n=6) and DB2313 (n=3). Data represent the means±SD of independent experiments; fold change compared to Vehicle is shown. *P<0.05, **P<0.01, ***P<0.001, ****P<0.0001 (F) Dose dependent inhibitor of PU.1-dependent transactivation.
(§2) To determine if our PU.1 inhibitors have an effect on PU.1^low-induced AML cells, we treated the PU.1 URE^−/− AML cell line with compounds at different concentrations. Treatment with the drugs led to a profound decrease in growth of PU.1 URE^−/− AML cells after 48 h whereas it had only minimal or no effects on control cells with normal PU.1 levels (BaF3), even at very high doses (FIG. 3A). […] Similar to our observations with PU.1-directed shRNAs, treatment with pharmacological PU.1 inhibitors led to a significant 1.6-, 2- and 3.5-fold increase of apoptotic cells with DB1976, DB2115 and DB2313, respectively, in murine PU.1 URE^−/− AML cells (FIG. 3C), and similar effects in human MOLM13 cells.

[2] = system: BaF3 cells; experiment: Cell viability of BaF3 control cells; assay type: cell-based, murine; conditions: Mus musculus, NR = Not Reached
Description: as §1, §2

IC50 [2] [µM] | Structure (SMILES) | IC50 [1] [µM]
68 | N=C(N)c1ccc2nc(-c3ccc(OCCOCCOc4ccc(-c5nc6ccc(C(=N)N)cc6[nH]5)cc4)cc3)[nH]c2c1 [DB2146] | 5
416 | CN(CCOc1ccc(-c2nc3ccc(C(=N)N)cc3[nH]2)cc1)CCOc1ccc(-c2nc3ccc(C(=N)N)cc3[nH]2)cc1 [DB2150] | 20
 | Cn1c(-c2ccc(OCCCOc3ccc(-c4nc5cc(C(=N)N)ccc5n4C)cc3)cc2)nc2cc(C(=N)N)ccc21 [DB2237] | 4.4
 | CC(C)NC(=N)c1ccc2nc(-c3ccc(OCCOCCOc4ccc(-c5nc6ccc(C(=N)NC(C)C)cc6[nH]5)cc4)cc3)[nH]c2c1 [DB2295] | 10.5
 | CC(C)NC(=N)c1ccc2nc(-c3ccc(OCc4cccc(COc5ccc(-c6nc7ccc(C(=N)NC(C)C)cc7[nH]6)cc5)n4)cc3)[nH]c2c1 [DB2302] | 7.8
48 | Cn1c(-c2ccc(OCc3cccc(COc4ccc(-c5nc6cc(C(=N)N)ccc6n5C)cc4)n3)cc2)nc2cc(C(=N)N)ccc21 [DB2326] | 1.9
 | Cn1c(-c2ccc(-c3ccc(C(=N)N)cc3)s2)nc2cc(-c3ccc(C(=N)N)cc3)ccc21 [DB2457] | 16.5
 | N=C(N)c1ccc2nc(-c3ccc(Oc4ccc(Oc5ccc(-c6nc7ccc(C(=N)N)cc7[nH]6)cc5)cc4)cc3)[nH]c2c1 [DB2483] | 5.3
44.5 | N=C(N)c1ccc2nc(-c3ccc(OCC(F)(F)C(F)(F)Oc4ccc(-c5nc6ccc(C(=N)N)cc6[nH]5)cc4)cc3)[nH]c2c1 [DB2514] | 5.6

Structure (SMILES) | IC50 [2] [µM] | IC50 [1] [µM]
N=C(N)c1ccc2nc(-c3ccc(OCC(F)(F)C(F)(F)C(F)(F)COc4ccc(-c5nc6ccc(C(=N)N)cc6[nH]5)cc4)cc3)[nH]c2c1 [DB2355] | 49 | 1.7
